According to patent US20210154162A1, “DRUG AND PHARMACEUTICAL COMPOSITION CONTAINING TRANSPORT PROTEIN INHIBITOR, AND USE” (Institute of Basic Medical Sciences Chinese Academy of …, priority 2018, published 2021):

Assays:
PD-1 [1] = assay: PD-1 expression in anti-CD3/CD28 bead-activated CD8+ T cells treated with Kyn or other tryptophan metabolites (flow cytometry); type: cell-based, mouse; settings: Kyn at different concentrations; 200 μM for different time periods; anti-CD3/CD28 microbeads
Description: (4) The isolated splenic CD8^+ T cells were incubated with anti-CD3/CD28 beads in the presence of different concentrations of Kyn. PD-1 expression was determined by flow cytometry.
(5) The experimental steps were the same as those of step (4), except that CD8^+ T cells were treated with 200 μM Kyn for different time periods as shown in FIG. 2E.
(6) Anti-CD3/CD28 bead-activated CTLs were treated with PBS, 200 μM Kyn or other metabolites (500 μM) from the tryptophan pathway (melatonin, kynurinic acid and indoxyle sulphate). After 24 h, PD-1 expression was determined by flow cytometry.

PAT4 and SLC7A8 [2] = assay: PAT4 and SLC7A8 expression in activated CD8+ T cells (real-time PCR, immunostaining); type: cell-based, mouse; settings: activated CD8+ T cells, Kyn 200 μM, 24 h
Description: (2) Activated CD8^+ T cells were treated with PBS or Kyn (200 μM) for 24 h. The expression of PAT4 and SLC7A8 was determined by real-time PCR (left) and immunostaining (right). Bar, […].
(6) The mRNA expression of PAT4 and SLC7A8 was determined in activated CD8^+ T cells treated with PBS, Kyn, Kyn/CH-223191 (10 μM) or Kyn/DMF (20 μM) for 48 h.

CD8^+ T cells = assay: Kyn i.p. injection in WT or AhR-/- C57BL/6 mice, analysis of CD8+ T cells; type: in vivo, mouse
Description: (1) WT C57BL/6 mice were i.p. injected with PBS or Kyn (50 μg, once per day) for 5 days, and CD8^+ T cells were sorted by FACS from the spleen and mesenteric lymph nodes. PD-1 expression was determined by flow cytometry (FIG. 6A). Some CD8^+ T cells from spleen were immunostained with AhR and DAPI (FIG. 6B), and the mRNA expression of PAT4 and SLC7A8 was determined by real-time PCR (FIG. 6C). […] Bar, […]. (2) The experimental steps were the same as those of step (1), except that AhR^−/− mice were used. (3) PD-1 expression in resting or anti-CD3/CD28 bead-activated splenic CD8^+ T cells was determined, wherein said cells were isolated from AhR^−/− C57BL/6 mice injected with PBS or Kyn for 5 days.

PD-1 [3] = assay: OVA-B16 melanoma-bearing mice with adoptively transferred CFSE-labeled OT-1 T cells, PD-1 expression; type: in vivo, mouse; settings: Kyn 50 μg/mouse i.p. once every two days, three times; Day 7
Description: (6) C57BL/6 mice with 5×5 mm OVA-B16 melanoma were adoptively transferred with CFSE-labeled OT-1 CD8^+ T cells (4×10^6 cells/mouse, once every three days) on three occasions. At the same time, some mice were i.p. injected with Kyn (50 μg/mouse, once every two days) for three times. On Day 7 after transferring, CFSE^+CD8^+ T cells were isolated from tumor for flow cytometric analysis of PD-1 expression.
(8) The experimental steps were the same as those of step (7), except that C57BL/6 mice were treated with Kyn, DMF (5 μg/mouse, o.t., twice every day) or Kyn+DMF for 6 days. CFSE^+CD8^+ T cells from tumor were isolated for flow cytometric analysis of PD-1 expression.

PD-1 [4] = assay: PD-1 expression in human CD8+ T cells treated with Kyn and AhR inhibitors (flow cytometry); type: cell-based; settings: resting and activated CD8+ T cells from healthy donors, breast and lung cancer patients; Kyn 200 μM, 48 h
Description: (4) CD8^+ T cells isolated from PBMCs of patients with breast cancer or lung cancer were activated by anti-CD3/CD28 beads and treated with PBS, Kyn (200 μM) or Kyn/DMF (20 μM) for 48 h. The expression of PD-1 was determined by flow cytometry.
(5) CD8^+ T cells isolated from patients with breast cancer or lung cancer were treated with DMF (20 μM) for 48 h. PD-1 expression was determined by flow cytometry (n=6).

PAT4 and SLC7A8 [5] = assay: Effect of Kyn on the expression of PAT4 and SLC7A8 in human peripheral blood CD8+ T cells (fluorescence quantitative PCR); type: cell-based; settings: activated peripheral blood CD8+ T cells of breast cancer patients, 200 μM Kyn, 48 h
Description: Mononuclear cells were isolated and obtained from the peripheral whole blood of breast cancer patients by using Ficoll. CD8^+ T cells were sorted by magnetic beads, and seeded into a U-shaped bottom 96-well plate (100000 cells/well) while anti-CD3/CD28 magnetic beads were added to activate T cells. The culture medium was RPMI-1640 added with 10 ng/mL human IL-2. Cells were grouped and treated with drugs as follows. Control group 1 (PBS): culture medium+PBS; Experimental group 2 (Kyn): culture medium+200 μM Kyn; RNA was collected from cells in each group after 48 h, and the expression of PAT4 and SLC7A8 was determined by fluorescence quantitative PCR.

## Nc1ccccc1C(=O)CC(N)C(=O)O (stereo not drawn) [Kyn, kynurenine]
PD-1 [1]
  PD-1 expression: markedly upregulated
PAT4 and SLC7A8 [2]
  expression of SLC7A8 and PAT4: strikingly resulted in the upregulation
CD8^+ T cells; AhR-/- mice, Kyn for 5 days
  PD-1 expression: failed to induce
CD8^+ T cells; WT C57BL/6 mice, Kyn 50 μg i.p. once per day, 5 days
  PD-1 expression in CD8+ T cells of spleen and lymph nodes: upregulated PD-1 expression
CD8^+ T cells; WT C57BL/6 mice, Kyn 50 μg i.p., 5 days
  expression of Kyn transporters SLC7A8 and PAT4: upregulated
CD8^+ T cells; WT C57BL/6 mice, Kyn 50 μg i.p., 5 days, spleen
  AhR localisation in CD8+ T cells: translocated to the nucleus
PD-1 [3]
  PD-1 expression in tumor-infiltrating CFSE+ T cells: much higher levels of PD-1 expression
PD-1 [4]
  PD-1 expression: upregulated
PAT4 and SLC7A8 [5]
  expression of PAT4 and SLC7A8: significantly upregulating
